Data taken from patent US4588720A, “Imidazo[1,2-a]pyrimidines” (Roussel Uclaf, priority 1982, dated 1986).

Assays:
[1] = molecular target: benzodiazepine receptors; test: Affinity for benzodiazepine receptors ([3H] flunitrazepam radioreceptor binding); details: inhibition of specific binding of 0.6 nM [^3 H] flunitrazepam, rat forebrain membrane preparations; read-out: Receptor Binding (IC50 nM)
Procedure: A. Affinity for benzodiazepine receptors
The affinity of the compounds for benzodiazepine receptors was assessed using the radioligand [^3 H] flunitrazepam and modifications of the original radioreceptor binding method of Squares and Braestrup (Nature, Vol. 266 (1977) p. 732). The values given in Table VI are nanomolar concentrations of test compound which inhibited the specific binding of 0.6 nM[^3 H] flunitrazepam to rat forebrain membrain preparations by 50% (IC50 nM).

[2] = Anxiolytic activity, Geller conflict method (Geller and Seifter); format: in vivo; details: po; modified Geller and Seifter conflict method; read-out: Geller Conflict (MED mg/kg po), minimum effective dose at which there was an observed increase in shocks above control
Procedure: Screening for anxiolytic activity was carried out by modifications of the conflict method of Geller and Seifter (Psychopharmacologia, (1960), Volume I, p. 482). The values given in Table VI are the minimum effective doses at which there was an observed increase in shocks above control (MED me/kg po).

Compound	IC50 [1]	minimal effective dose [2]
CSc1nc2nc(C(=O)c3ccccc3)cn2c2c1CCCC2 [Example 12, [5-(Methylthio)-6,7,8,9-tetrahydroimidazo[1,2-a]quinazolin-2-yl]phenylmethanone]	8.5 nM	10 mg/kg
CCc1c(OC)nc2nc(C(=O)c3cccc(C(F)(F)F)c3)cn2c1C [Example 63, (6-ethyl 7-methoxy 5-methylimidazo/1,2-a/pyrimidin-2-yl)/(3-trifluoromethyl)phenyl/methanone]	–	50 mg/kg
CCc1c(SC)nc2nc(C(=O)c3ccccc3)cn2c1CC [Example 52, [5,6-Diethyl-7-(methylthio)imidazo[1,2-a]pyrimidin-2-yl]phenylmethanone]	12 nM	–
C=CCc1c(OC)nc2nc(C(=O)c3ccccc3)cn2c1CCC [Example 37, [6-Allyl-7-methoxy-5-n-propylimidazo[1,2-a]pyrimidin-2-yl]phenylmethanone]	135 nM	50 mg/kg
CCCCc1c(C)c(OC)nc2nc(C(=O)c3ccccc3)cn12 [Example 39, [5-n-Butyl-7-methoxy-6-methylimidazo[1,2-a]pyrimidin-2-yl]phenylmethanone]	400 nM	50 mg/kg
COc1nc2nc(C(=O)c3ccccc3)cn2c2c1CCC2 [Example 4, (5-Methoxycyclopenta[e]imidazol[1,2-a]pyrimidin-2-yl)-phenylmethanone]	200 nM	20 mg/kg
CCOc1nc2nc(C(=O)c3ccccc3)cn2c2c1CCCCC2 [Example 10]	4000 nM	5 mg/kg
CCCCc1c(CC)c(OC)nc2nc(C(=O)c3ccccc3)cn12 [Example 45, [5-n-Butyl-6-ethyl-7-methoxyimidazo[1,2-a]pyrimidin-2-yl]phenylmethanone]	500 nM	50 mg/kg
COc1nc2nc(C(=O)c3ccccc3)cn2c2c1CCC(C)C2 (stereo not drawn) [Example 17, (5-Methoxy-8-methyl-6,7,8,9-tetrahydroimidazo[1,2-a]quinazolin-2-yl]phenylmethanone]	135 nM	10 mg/kg
COc1nc2nc(C(=O)c3ccccc3)cn2c(C)c1Cc1ccccc1 [Example 9, (6-Benzyl-7-methoxy-5-methylimidazo[1,2-a]pyrimidin-2-yl)phenylmethanone]	45 nM	50 mg/kg
CCCc1c(OC)nc2nc(C(=O)c3ccccc3)cn2c1CCC [Example 33, [7-Methoxy-5,6-di-n-propylimidazo[1,2-a]pyrimidin-2-yl]phenylmethanone]	1250 nM	50 mg/kg
CCc1c(OC)nc2nc(C(=O)c3cccs3)cn2c1C [Example 60, 6-ethyl 7-methoxy 5-methylimidazo/1,2-a/pyrimidin-2-yl(2-thienyl)methanone]	–	50 mg/kg
CCCc1c(CC)c(OC)nc2nc(C(=O)c3ccccc3)cn12 [Example 27, [6-Ethyl-7-methoxy-5-n-propylimidazo[1,2-a]pyrimidin-2-yl]phenylmethanone]	470 nM	50 mg/kg
CCc1c(OC)nc2nc(C(=O)c3ccc(F)cc3)cn2c1C [Example 62, (6-ethyl 7-methoxy 5-methylimidazo/1,2-a/pyrimidin-2-yl)(4-fluorophenyl)methanone]	–	10 mg/kg
CCc1c(OC)nc2nc(C(C)=O)cn2c1C [Example 64, 1-(6-ethyl 7-methoxy 5-methylimidazo/1,2-a/pyrimidin-2-yl)ethanone]	–	50 mg/kg
CCc1c(OC)nc2nc(C(=O)c3ccccn3)cn2c1C [Example 61, (6-ethyl 7-methoxy 5-methylimidazo/1,2-a/pyrimidin-2-yl)(2-pyridinyl)methanone]	–	50 mg/kg
CCCc1c(SC)nc2nc(C(=O)c3ccccc3)cn2c1CC [Example 53, [5-Ethyl-7-(methylthio)-6-n-propylimidazo[1,2-a]pyrimidin-2-yl]phenylmethanone]	47 nM	–
